Test results: patent US8058311B2, “Imaging 18F or 11C-labelled alkylthiophenyl guanidines” (Hammersmith Imanet Limited, priority 2005, dated 2011)

Test: Biodistribution: radioactivity in rat brain tissue after intravenous injection
Type: in vivo
Conditions: for signal relative to cerebellum in hippocampus and cortex: IV injection; for radioactivity in blood / radioactivity in cerebellum / radioactivity in entorhinal cortex / radioactivity in hippocampus / radioactivity in hypothalamus / radioactivity in inferior colliculi / radioactivity in occipital cortex / radioactivity in olfactory tubercles / radioactivity in plasma (shown for comparison) / radioactivity in pons with medulla / radioactivity in prefrontal cortex / radioactivity in somatosensory cortex / radioactivity in striata / radioactivity in superior colliculi / radioactivity in thalamus: intravenous injection
Method: N-(2-Chloro-5-(2-[^18F]fluoro-ethylthio))-phenyl-N′-(3-methylthio)-phenyl-N′-methylguanidine was prepared according to Example 4 (synthesis formulation ˜3% ethanol in 0.9% w/v saline solution) with a radiochemical purity of ˜99% and, at time of injection, the specific activity ranged from 4-16 GBq/nmol^−1. Biodistribution and blood data were from 11 adult male Sprague-Dawley rats (body weight range, 269 to 329 g; mean±S.E.=300±18 g). N-(2-Chloro-5-(2-[^18F]fluoro-ethylthio))-phenyl-N′-(3-methylthio)-phenyl-N′-methylguanidine was injected directly into the tail vein of each rat whilst under isoflurane anaesthesia. Each animal was then allowed to recover from anaesthesia. At designated times after injection, rats were sacrificed by cervical dislocation under anaesthesia and brain and body tissues were rapidly sampled.
The data were acquired using two syntheses. Rats were given an average of 86 MBq (85.3 MBq for first experimental day and 87.3 MBq for the second experimental day), in a volume of 0.20 ml (synthesis formulation ˜3% alcohol), via direct intravenous injection through the tail vein. The mass of co-injected N-(2-Chloro-5-(2-[^18F]fluoro-ethylthio))-phenyl-N′-(3-methylthio)-phenyl-N′-methylguanidine ranged from 0.7-2.9 nmol.kg^−1. Details of the methodology, together with processing and counting of the samples can be found in Hume et al., Nucl. Med. Biol. (1991) 18: 339-351. Data were normalised for injected radioactivity and body weight, giving: ‘uptake units’=(cpm.g^−1 wet weight tissue)·(injected cpm.g^−1 body weight)^−1 Results
Radioactivity concentration data are additionally collated in Tables 1 (peripheral tissue) and 2 (brain). As metabolite studies were not carried out, the proportion of the total radioactivity reflecting label associated with parent N-(2-Chloro-5-(2-[^18F]fluoro-ethylthio))-phenyl-N′-(3-methylthio)-phenyl-N′-methylguanidine is not known. Note, Blood and plasma samples were collected post-mortem from the heart ventricle.

SMILES: CSc1cccc(N(C)C(=N)Nc2cc(SCC[18F])ccc2Cl)c1 [N-(2-Chloro-5-(2-[^18F]fluoro-ethylthio))-phenyl-N′-(3-methylthio)-phenyl-N′-methylguanidine]
- initial uptake in all brain tissues (2 minutes after IV injection): ~4 uptake units
- activity in all brain tissues (90 minutes after radioligand injection): ~0.4 uptake units
- signal relative to cerebellum in hippocampus and cortex (by 90 minutes): 1
- signal relative to cerebellum in hippocampus and cortex (reached over the first 40 minutes): 1.3
- signal relative to cerebellum in hippocampus and cortex (start of the first 40 minutes): ~0.8
- rat brain uptake of radioactivity (earliest sample time (2 min) after IV injection): high uptake of radioactivity
- radioactivity in blood (2 min, n = 1): 0.288 uptake units
- radioactivity in cerebellum (2 min, n = 1): 4.204 uptake units
- radioactivity in entorhinal cortex (2 min, n = 1): 2.766 uptake units
- radioactivity in hippocampus (2 min, n = 1): 2.864 uptake units
- radioactivity in hypothalamus (2 min, n = 1): 3.397 uptake units
- radioactivity in inferior colliculi (2 min, n = 1): 6.716 uptake units
- radioactivity in occipital cortex (2 min, n = 1): 4.008 uptake units
- radioactivity in olfactory tubercles (2 min, n = 1): 2.826 uptake units
- radioactivity in plasma (shown for comparison) (2 min, n = 1): 0.264 uptake units
- radioactivity in pons with medulla (2 min, n = 1): 3.678 uptake units
- radioactivity in prefrontal cortex (2 min, n = 1): 3.808 uptake units
- radioactivity in somatosensory cortex (2 min, n = 1): 3.531 uptake units
- radioactivity in striata (2 min, n = 1): 2.306 uptake units
- radioactivity in superior colliculi (2 min, n = 1): 4.977 uptake units
- radioactivity in thalamus (2 min, n = 1): 4.460 uptake units
- radioactivity in blood (5 min, n = 1): 0.261 uptake units
- radioactivity in cerebellum (5 min, n = 1): 2.761 uptake units
- radioactivity in entorhinal cortex (5 min, n = 1): 2.442 uptake units
- radioactivity in hippocampus (5 min, n = 1): 2.250 uptake units
- radioactivity in hypothalamus (5 min, n = 1): 2.443 uptake units
- radioactivity in inferior colliculi (5 min, n = 1): 3.292 uptake units
- radioactivity in occipital cortex (5 min, n = 1): 2.883 uptake units
- radioactivity in olfactory tubercles (5 min, n = 1): 3.062 uptake units
- radioactivity in plasma (shown for comparison) (5 min, n = 1): 0.135 uptake units
- radioactivity in pons with medulla (5 min, n = 1): 2.877 uptake units
- radioactivity in prefrontal cortex (5 min, n = 1): 3.099 uptake units
- radioactivity in somatosensory cortex (5 min, n = 1): 2.772 uptake units
- radioactivity in striata (5 min, n = 1): 1.817 uptake units
- radioactivity in superior colliculi (5 min, n = 1): 3.541 uptake units
- radioactivity in thalamus (5 min, n = 1): 2.566 uptake units
- radioactivity in blood (10 min, n = 2): 0.146 uptake units
- radioactivity in cerebellum (10 min, n = 2): 1.451 uptake units
- radioactivity in entorhinal cortex (10 min, n = 2): 1.404 uptake units
- radioactivity in hippocampus (10 min, n = 2): 1.396 uptake units
- radioactivity in hypothalamus (10 min, n = 2): 1.275 uptake units
- radioactivity in inferior colliculi (10 min, n = 2): 1.539 uptake units
- radioactivity in occipital cortex (10 min, n = 2): 1.651 uptake units
- radioactivity in olfactory tubercles (10 min, n = 2): 1.300 uptake units
- radioactivity in plasma (shown for comparison) (10 min, n = 2): 0.102 uptake units
- radioactivity in pons with medulla (10 min, n = 2): 1.530 uptake units
- radioactivity in prefrontal cortex (10 min, n = 2): 1.649 uptake units
- radioactivity in somatosensory cortex (10 min, n = 2): 1.588 uptake units
- radioactivity in striata (10 min, n = 2): 1.433 uptake units
- radioactivity in superior colliculi (10 min, n = 2): 1.677 uptake units
- radioactivity in thalamus (10 min, n = 2): 1.353 uptake units
- radioactivity in blood (30 min, n = 3, mean ± SD): 0.269 ± 0.042 uptake units
- radioactivity in cerebellum (30 min, n = 3, mean ± SD): 0.919 ± 0.110 uptake units
- radioactivity in entorhinal cortex (30 min, n = 3, mean ± SD): 0.941 ± 0.086 uptake units
- radioactivity in hippocampus (30 min, n = 3, mean ± SD): 1.088 ± 0.142 uptake units
- radioactivity in hypothalamus (30 min, n = 3, mean ± SD): 1.076 ± 0.250 uptake units
- radioactivity in inferior colliculi (30 min, n = 3, mean ± SD): 0.841 ± 0.084 uptake units
- radioactivity in occipital cortex (30 min, n = 3, mean ± SD): 1.041 ± 0.067 uptake units
- radioactivity in olfactory tubercles (30 min, n = 3, mean ± SD): 0.981 ± 0.235 uptake units
- radioactivity in plasma (shown for comparison) (30 min, n = 3, mean ± SD): 0.229 ± 0.047 uptake units
- radioactivity in pons with medulla (30 min, n = 3, mean ± SD): 1.110 ± 0.129 uptake units
- radioactivity in prefrontal cortex (30 min, n = 3, mean ± SD): 1.168 ± 0.042 uptake units
- radioactivity in somatosensory cortex (30 min, n = 3, mean ± SD): 1.037 ± 0.103 uptake units
- radioactivity in striata (30 min, n = 3, mean ± SD): 1.101 ± 0.202 uptake units
- radioactivity in superior colliculi (30 min, n = 3, mean ± SD): 1.086 ± 0.286 uptake units
- radioactivity in thalamus (30 min, n = 3, mean ± SD): 1.415 ± 0.203 uptake units
- radioactivity in blood (60 min, n = 3, mean ± SD): 0.229 ± 0.068 uptake units
- radioactivity in cerebellum (60 min, n = 3, mean ± SD): 0.454 ± 0.082 uptake units
- radioactivity in entorhinal cortex (60 min, n = 3, mean ± SD): 0.502 ± 0.095 uptake units
- radioactivity in hippocampus (60 min, n = 3, mean ± SD): 0.548 ± 0.119 uptake units
- radioactivity in hypothalamus (60 min, n = 3, mean ± SD): 0.533 ± 0.115 uptake units
- radioactivity in inferior colliculi (60 min, n = 3, mean ± SD): 0.456 ± 0.079 uptake units
- radioactivity in occipital cortex (60 min, n = 3, mean ± SD): 0.541 ± 0.124 uptake units
- radioactivity in olfactory tubercles (60 min, n = 3, mean ± SD): 0.504 ± 0.062 uptake units
- radioactivity in plasma (shown for comparison) (60 min, n = 3, mean ± SD): 0.222 ± 0.055 uptake units
- radioactivity in pons with medulla (60 min, n = 3, mean ± SD): 0.551 ± 0.143 uptake units
- radioactivity in prefrontal cortex (60 min, n = 3, mean ± SD): 0.519 ± 0.105 uptake units
- radioactivity in somatosensory cortex (60 min, n = 3, mean ± SD): 0.517 ± 0.107 uptake units
- radioactivity in striata (60 min, n = 3, mean ± SD): 0.481 ± 0.136 uptake units
- radioactivity in superior colliculi (60 min, n = 3, mean ± SD): 0.486 ± 0.101 uptake units
- radioactivity in thalamus (60 min, n = 3, mean ± SD): 0.553 ± 0.108 uptake units
- radioactivity in blood (90 min, n = 1): 0.180 uptake units
- radioactivity in cerebellum (90 min, n = 1): 0.366 uptake units
- radioactivity in entorhinal cortex (90 min, n = 1): 0.383 uptake units
- radioactivity in hippocampus (90 min, n = 1): 0.391 uptake units
- radioactivity in hypothalamus (90 min, n = 1): 0.466 uptake units
- radioactivity in inferior colliculi (90 min, n = 1): 0.306 uptake units
- radioactivity in occipital cortex (90 min, n = 1): 0.423 uptake units
- radioactivity in olfactory tubercles (90 min, n = 1): 0.504 uptake units
- radioactivity in plasma (shown for comparison) (90 min, n = 1): 0.163 uptake units
- radioactivity in pons with medulla (90 min, n = 1): 0.406 uptake units
- radioactivity in prefrontal cortex (90 min, n = 1): 0.414 uptake units
- radioactivity in somatosensory cortex (90 min, n = 1): 0.376 uptake units
- radioactivity in striata (90 min, n = 1): 0.485 uptake units
- radioactivity in superior colliculi (90 min, n = 1): 0.386 uptake units
- radioactivity in thalamus (90 min, n = 1): 0.551 uptake units
